Tests used:
Hut78 cells [1] = assay: Alkaline comet assay, Hut78 cells; assay type: cell-based, homo sapiens; conditions: Hut78, 72 h after treatment, relative to 24 h
Method: (§1) Comet assay using the Trevigen Comet assay kit (Trevigen Inc., Gaithersburg, Md., USA) was done according to the manufacturer's protocol. MyLa or Hut78 cells were treated with drugs, washed, incubated for interval time, washed in PBS, counted and suspended in PBS. 1 ×10^5 cells/ml were incubated with pre-heated low melting agarose for 20 min in 37° C., loaded on a comet-slide and kept in the dark for 30 min at 4° C., in cold lysis solution for another 20 min, and finally for 20 min with unwinding solution in RT. The slides were run with cold fresh alkaline electrophoresis buffer in the COMET-20 electrophoresis system (Scie-Plas, Harvard apparatus, UK) for 20 min in 21 volts, 4° C. Slides were stirred gently and washed twice in dH20 bath for 5 min and in 70% ethanol for 5 min. […] The cells were scored under fluorescence microscope (Nikon eclipse 55i, Tokyo, Japan) at a magnification ×10. Cell scores were analyzed using the software “Comet Assay IV” (perceptive instruments, UK). […] 24h after treating the cells the mean tail moment reaches its maximal level, therefore the percent of repaired damage was calculated as follows: (mean tail moment at 24h)−(mean tail moment at indicated time)/mean tail moment at 24 h. At least a total of 100 cells were measured per time-point. […]

[2] = system: NBS1, Rad51, Mre11, DNA-PK, Ku70 in MyLa cells; assay: Western blot of DSB repair proteins, MyLa cells; assay type: cell-based, human; conditions: 24 and 48 h post treatment
Method: (§2) Whole cells extract—Cells were suspended in lysis buffer (Tris-HCl 50 mM, NaCl 150 mM, NP-40 0.5%), incubated for lh on ice, centrifuged and the supernatant was collected. Protease and Phosphatase inhibitors were added to all buffers at a 1:100 dilutions. […] Bands were visualized by Odyssey Infrared Imaging System and the bands intense were normalized to actin.
(§3) To address whether AN-7 interfere in DSBs repair by regulating the expression of DSBs repair proteins, Immunoblot was applied for those proteins. MyLa and Hut78 cells were treated as previously described and subjected to western blot of DSBs repair proteins.

Hut78 cells [3] = assay: MTT-based viability assay, Hut78 cells; conditions: Homo sapiens, HuT78, 72 h, read-out: IC50 single treatment Dox
Method: (§4) MyLa cells (10^4), Hut78 cells (5×10^3), SPBL and NPBL (10^5) were seeded in triplicate in 96-well plates. The PBL were activated with PHA 40 μg/10^6 cell for 24 h before the experiment. […] The cells were then placed in a humidified incubator for 72 h. […] The MTT reagent was added to a final concentration of 0.5 mg/mL, and the cells were incubated for an additional 4 h. Thereafter, 0.1N HCl in isopropanol was added, and cell viability was determined using an ELISA reader (PowerWaveX, BioTek, Winooski, Vt., USA) at a 570 nm wavelength with background subtraction at 630-690 nM.
(§5) Viability and apoptosis curves were based on the averages of at least 3 independent experiments. The standard error (SE) was calculated for each group as follows: SE=standard deviation/√n, where n is number of values in the group. […] Significant differences in selectivity among groups were analyzed by comparing the IC50 values using two-tailed unpaired t-test using Excel or by comparing the differential effects for all the dose response titrations using ANOVA with repeated measures.

[4] = system: Sezary syndrome Peripheral blood lymphocytes SPBL; assay: MTT-based viability assay, Sezary PBL (SPBL); conditions: Homo sapiens, Lymphocyte, 72 h, read-out: IC50 single treatment Dox
Method: (§6) Peripheral blood was diluted 1:3 in sterile phosphate-buffered saline (PBS). Lymphoprep was added in the same blood volume with a Pasteur pipette, and the sample was centrifuged. PBL were collected from the white median interphase, rinsed twice with PBS, and suspended in RPMI medium with 10 mM HEPES to 2×10^6 cells/mL.
as §4, §5
(§7) NPBL were treated at same molar ratio as SPBL.

[5] = system: NBS1, Rad51, Mre11, DNA-PK, Ku70 in Hut78 cells; assay: Western blot of DSB repair proteins, Hut78 cells; assay type: cell-based, homo sapiens; conditions: Hut78, 18 and 24 h post treatment
Method: as §2, §3

MyLa cells [6] = assay: Alkaline comet assay, MyLa cells; assay type: cell-based, human; conditions: 96 h after treatment, relative to 24 h
Method: as §1

[7] = system: p-KAP1, γH2AX in MyLa cells; assay: Western blot of p-KAP1 and γH2AX, MyLa cells; assay type: cell-based, human; conditions: 1 mM AN-7 2 h, 1 μM Dox 1 h, or AN-7 1 h followed with Dox 1 h
Method: Cell fraction—3×10^6cells were suspended in 100 μl hypotonic buffer (HEPES 10 mM, KCl 5 mM, MgCl2 1.5 mM, DTT 1 mM, NP-40 1%), incubated for 15 min in ice, centrifuged and the supernatant fraction was subjected to western blot of pKAP1 and actin. The sediment was washed once with hypotonic buffer followed by suspension in 100 μl of hypertonic buffer (HEPES 10 mM, NaCl 500 mM, MgCl2 1.5 mM, DTT 1 mM, NP-40 1%), incubated for 15 min in ice, centrifuged, supernatant was removed and the sediment was boiled, vortexed for 10 min at 95° C. with sample buffer ×3 for 3 times and subjected to western blot of γH2AX.
as §2
Next, cells were fractionated and fraction lysate were subjected to western blot of phosphorylated KAP1 (p-KAP1), γH2AX and actin.

MyLa cells [8] = assay: MTT-based viability assay, MyLa cells; conditions: Homo sapiens, 72 h
Method: as §4, §5

NPBL = assay: MTT-based viability assay, normal PBL (NPBL)
Method: as §6, §4, §5, §7

[9] = system: γH2AX foci in Hut78 cells; assay: γH2AX nuclear foci immunofluorescence, Hut78 cells; assay type: cell-based, homo sapiens; conditions: Hut78, 24 h-72 h after treatment, relative to 3 h
Method: MyLa or Hut78 cells were treated with drugs, washed, incubated for interval time, and then 2×10^5cells/m1 were centrifuged with cyto-slides (CytoSlide, Shandon, Thermo, Ma, USA) in CYTOSPIN 4 (Shandon, Thermo scientific, West Palm Beach, USA) for 5 min 1000 rpm. Slides were washed with cold PBS on ice, pre-extracted with cold PBS-NP40-0.2% for 10 min, washed 3 times with cold PBS, fixed with 4% Paraformaldehyde for 10 min at RT, and washed 3 times with PBS. Slides were incubated with anti γ-H2AX, Bethyl A300-081A 1:1000, for 1.5 h in RT, washed twice in PBS-T (0.05% Tween in PBS) and once with PBS, incubated with Donkey anti rabbit IgG Alexa Fluor A-21206 1:700, for 30 min at RT, washed 3 times with PBS, dried gently, covered with 1 drop of Fluorescent mounting medium with DAPI (GBI-labs, WA, USA) and on top with cover glass. Slides were visualized in a light microscope (Olympus BX52, Tokyo, Japan). Foci analysis was performed using ImageJ software and PZfociEZ plugin. % of cells with >5 foci/cell was considered as damaged cells. % of repaired damage was calculated as follows: (% of cells with >5 foci/cell at 3 h)−(% of cells with >5 foci/cell at indicated time)/(% of cells with >5 foci/cell at 3 h). At least a total of 150 cells were measured per time-point.

MyLa cells [10] = assay: cells; assay type: cell-based, human; conditions: Homo sapiens
[11] = system: caspase 3, PARP, P21 and Bax in MF/SS cell lines; assay: Western blot of pro-apoptotic proteins in MF/SS cell lines; assay type: cell-based, human; conditions: MyLa and Hut78, SAHA 10 μM or AN-7 300 μM
From the text: However, there was a stronger signal in response to SAHA.

MyLa cells [12] = assay: FACS analysis with annexin V and PI staining (apoptosis), MyLa cells; conditions: SAHA 10 μM or AN-7 300 μM
Method: (§8) The cells (2.5×10^6 cells/mL) were washed in PBS and binding buffer and were resuspended in binding buffer, and of fluorescein isothiocyanate-conjugated annexin V (5 μL) was added to a 100 μL cell suspension for 10-15 min. Incubation was performed at room temperature under light-protected conditions. The cells were then washed in binding buffer and were resuspended in the binding buffer and propidium iodide (PI) (5 μL) was added. The samples were analyzed by flow cytometry (FACS Calibur 4.1.6, Becton Dickinson): fluorescein-labeled annexin V at a 530 nm wavelength, and PI at a 585 nm wavelength. The percentage of cells was calculated by their distribution in a fluorescence dot plot generated with FCS Express 4 software (De Novo Software, Los Angeles, Calif., USA). Early (annexin V-positive) and late (annexin V+PI-positive) apoptotic cells were summed to yield the total number of apoptotic cells.

HDAC1 = assay: Western blot of HDAC1 protein expression in MF/SS cell lines; assay type: cell-based, human; conditions: MyLa and Hut78, SAHA 10 μM or AN-7 300 μM
Acetylated H3 = assay: Western blot of acetylated H3 in nuclear lysate of MF/SS cell lines; conditions: MyLa and Hut78, SAHA 10 μM or AN-7 300 μM
Method: Cells (5×10^6) were suspended in 300 μL of cytoplasmic buffer (HEPES 10 mM, KCl 10 mM, EDTA 1 mM, EGTA 1 mM, DTT 1 mM). After 20 min of incubation on ice, the mixture was passed 5 times through a 25-G syringe and then centrifuged briefly to obtain the cytoplasmic supernatant.
The nuclear pellet was suspended in 40-60 μL of nuclear buffer (cytoplasmic buffer+10% glycerol), incubated with shaking at 4° C. for 15 min, and centrifuged. The supernatant was collected as a nuclear fraction.
Cell extracts were separated by SDS-polyacrylamide gel electrophoresis (SDS-PAGE), transferred to a nitrocellulose membrane, and subjected to immunoblot with primary and secondary antibodies, as listed in table 1.

Hut78 cells [13] = assay: FACS analysis with annexin V and PI staining (apoptosis), Hut78 cells; conditions: Hut78; SAHA 10 μM or AN-7 300 μM
Method: as §8

SMILES	repair of DNA breaks (mean tail moment) (Hut78 cells [1])	expression of NBS1, Mre11, Rad51 and DNA-PK [2]	IC50 (Hut78 cells [3]) [nM]	IC50 [4] [nM]	expression of NBS1 and DNA-PK [5]	damage repair (DNA breaks, mean tail moment) (MyLa cells [6])	induction and clearance of p-KAP1 [7]	induction and clearance of γH2AX [7]	IC50 (MyLa cells [8]; read-out: IC50 single treatment Dox) [nM]	IC50 (NPBL; Homo sapiens, 72 h, read-out: IC50 single treatment Dox) [nM]	percentage of repaired damage (γH2AX foci) [9] [%]	IC50 (MyLa cells [10]; 24 h, read-out: IC50 Long exposure) [nM]	IC50 (MyLa cells [10]; read-out: IC50 Short exposure) [nM]	expression of pro-apoptotic proteins (western blot) [11]	apoptosis (MyLa cells [12])	HDAC1 expression level (HDAC1)	expression of acetylated H3 (Acetylated H3)	apoptosis (Hut78 cells [13])	IC50 (MyLa cells [8]; read-out: IC50 single treatment (HDACI)) [nM]	NPBL survival at high doses (NPBL; high doses lethal to Hut78 and MyLa cells)
COc1cccc2c1C(=O)c1c(O)c3c(c(O)c1C2=O)C[C@@](O)(C(=O)CO)C[C@@H]3O[C@H]1C[C@H](N)[C@H](O)[C@H](C)O1 [Dox, doxorubicin, reference compound]	about 50%	did not affect the expression of DSB repair proteins	27 ± 2.6	68.2 ± 10.8	did not affect the expression of DSB repair proteins	about 72%	detected at 1-3 hours and declined after 24 hours	clearance of γH2AX observed at 24 h	19 ± 1	399 ± 24.3	77.9									
O=C(CCCCCCC(=O)Nc1ccccc1)NO [SAHA, Suberoylanilide hydroxamic acid, reference compound]												2300 ± 80	33000 ± 3700	cleavage of caspase 3 and poly ADP-ribose polymerase (PARP) and the production of P21 and Bax	about 60%	downregulated	induced	about 60%	2200 ± 100	lethal to all cells

Source: US20170189376A1, “BUTYROYLOXYMETHYL DIETHYL PHOSPHATE COMPOUNDS AND USES THEREOF” (MOR RESEARCH APPLICATIONS LTD., priority 2016, published 2017)
